According to US8067627B2, “Zinc-monocysteine complex and method of using zinc-cysteine complexes” (priority 2000, dated 2011):

How the values were obtained:
Type in all cases: cell-based
catalase = test: Catalase activity in cultured retinal pigment epithelial cells; details: 0, 15, 30 or 100 μM, compared with zinc acetate, zinc chloride, zinc sulfate
Experimental: (§1) The biological efficacy was tested by adding 0, 15, 30 or 100 μM of zinc cysteine to cultured retinal pigment epithelial cells in comparison to zinc salts (zinc acetate, zinc chloride, and zinc sulfate).
(§2) The complex of zinc-cysteine increased the activity of antioxidant enzymes catalase and glutathione peroxidase, and the antioxidant protein metallothionein in cultured retinal pigment epithelial cells more efficiently and potently than zinc acetate, zinc chloride, and zinc sulfate. […] The zinc-cysteine complex may be readily absorbed and distributed inside the cell to provide beneficial needs in regulating the antioxidant economy.

metallothionein = test: Metallothionein in cultured retinal pigment epithelial cells; details: 0, 15, 30 or 100 μM, compared with zinc acetate, zinc chloride, zinc sulfate
Experimental: as §1, §2

glutathione peroxidase = test: Glutathione peroxidase activity in cultured retinal pigment epithelial cells; details: 0, 15, 30 or 100 μM, compared with zinc acetate, zinc chloride, zinc sulfate
Experimental: as §1, §2

RPE cells = test: Protection of RPE cells from increasing hydrogen peroxide concentrations; details: compared with the zinc salts (zinc acetate, zinc chloride, zinc sulfate)
Experimental: as §1, §2

Row | Structure (SMILES) | activity of antioxidant enzyme catalase (catalase) | antioxidant protein metallothionein (metallothionein) | activity of antioxidant enzyme glutathione peroxidase (glutathione peroxidase) | protecting RPE cells from increasing hydrogen peroxide concentrations (RPE cells)
1 | N[C@@H](CS)C(=O)O [cysteine] | did not have an effect | did not have an effect |  | 
2 | NC1C[S][Zn][O]C1=O (stereo not drawn) [zinc-cysteine, zinc-monocysteine complex] | increased | increased | increased | more potent
